Entries after “also recorded” stand apart in the source; their conditions may differ.
Biological target: T1, Chicken egg lysozyme (Gallus gallus, UniProt P00698)
T1 construct: Chicken egg lysozyme (EC 3.2.1.17, FisherBiotech, 3X crystallized, lot Nos. 995417-12 and 996924-12); purchased FisherBiotech; host or cells: chicken egg (natural source)
Assay: Ligand binding to polycrystalline lysozyme detected by high resolution X-ray powder diffraction
Source text: The screening method of the present invention can be as follows. Two samples of polycrystalline material are produced as slurries. By “slurry” is meant, for example, a suspension of microcrystals of a macromolecule or macromolecule-ligand complex in a liquid. One of the samples includes the target protein or macromolecule and a suitable solvent. The other of the samples includes the target protein or macromolecule, one or more selected ligands and the same solvent as in the first sample. High resolution powder diffraction patterns are obtained for the polycrystalline macromolecule material in each sample. The patterns from the first and second samples are then compared to see if there is any discernable difference between the two sets of diffraction patterns beyond expected or measured experimental error or variation. When there is such a discernable difference between the two sets of diffraction patterns, that is a positive indication for the formation of a complex between the target protein or macromolecule and one or more of the selected ligands. […] In another manner, the pattern of the first sample can be inspected or analyzed to determine the positions of the diffraction peaks from the unbound form of the target protein or macromolecule, while the pattern of the second sample can be inspected or analyzed to determine the positions of the diffraction peaks from the target protein or macromolecule in the presence of the one or more selected ligands. Differences in such diffraction peaks can then be used to determine if there is a difference indicating binding of a ligand. This process is readily automated via computerized data processing routines.
Chicken egg lysozyme (EC 3.2.1.17, FisherBiotech, 3X crystallized, lot Nos. 995417-12 and 996924-12) and N-acetylglucosamine (NAG, ICN Biomedicals, Inc. lot No. R9745), pH 6.0 0.05M Na2HPO4/KH2PO4 buffer (Fisher Sci.), pH 5.0 0.05M KHphthalate/NaOH buffer (Hydrion™, Aldrich Chem.) and NaCl (“Certified for Biological Use”, Fisher Sci.) were used as received. In a typical sample preparation, a polycrystalline slurry was made by combining ˜20 mg lysozyme (1.4 μmol), about 10 mg of NAG (45 μmol) and 200 μl of 0.5M NaCl pH 6.0 buffer with an agate mortar and pestle. Polycrystalline precipitate formed within a few seconds. The slurry was loaded into a 1.5 mm diameter glass capillary, and centrifuged to pack the slurry. Excess mother liquor was removed and the capillary flame sealed to prevent subsequent solvent evaporation. In a similar way, a polycrystalline sample of unbound lysozyme in pH 6.0 0.5M NaCl buffer was prepared. Similar samples with pH 5.0 0.5M NaCl buffer were also prepared. Samples were about 8 mm long. As each sample was prepared, X-ray powder diffraction data were immediately collected at room temperature (23° C.) on beam line X3bl at the National Synchrotron Light Source, Brookhaven National Laboratory, equipped with a double Si(111) monochromator and a Ge(111) analyser; the sample was spun during data collection to ensure good powder averaging.

T1 sequence (P00698 19-147): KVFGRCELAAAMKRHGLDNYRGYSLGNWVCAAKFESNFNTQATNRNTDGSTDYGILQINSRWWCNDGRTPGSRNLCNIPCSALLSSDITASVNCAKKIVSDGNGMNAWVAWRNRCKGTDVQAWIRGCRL

SMILES: CC(=O)N[C@H]1C(O)O[C@H](CO)[C@@H](O)[C@@H]1O (stereo partly shown) [NAG, N-acetylglucosamine]
- lattice parameter a smaller compared to pure lysozyme from the same solvent (pH 5.0 0.5M NaCl): 0.06%
- lattice parameter c larger compared to pure lysozyme from the same solvent (pH 5.0 0.5M NaCl): 0.15%
- lattice parameter a smaller compared to apo-protein precipitated from the same buffer (pH 6.0 0.5M NaCl): 0.21%
- lattice parameter c larger compared to apo-protein precipitated from the same buffer (pH 6.0 0.5M NaCl): 0.49%
- change in powder diffraction pattern versus unbound lysozyme (complex formation) (slurry from pH 5.0 0.5M NaCl buffer, FIG. 2): no visible change in the powder pattern; also recorded: no changes evident
- change in powder diffraction pattern versus unbound lysozyme (complex formation) (slurry from pH 6.0 0.5M NaCl buffer, FIG. 1): a structural modification has occurred associated with the formation of a NAG/lysozyme complex
- change in powder diffraction pattern versus unbound lysozyme (complex formation) (slurry from pH 6.0 0.5M NaCl buffer, FIG. 1, listed as α-NAG): easily visible changes in the powder diffraction patterns

Source: US20030059843A1, “High throughput screening of ligand binding to macromolecules using high resolution powder diffraction” (priority 2001, published 2003)
